Experiments:
HRAS wild-type protein = HRAS wild-type protein (Homo sapiens, UniProt P01112); assay: Binding to HRAS by surface plasmon resonance (SPR), KD and KD ratio to KRAS; settings: ratio of KD for HRAS wild-type protein to KD for KRAS
Method in brief: (§1)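 Each cycle, GDP-bound biotin-Avi RAS was captured (~100–300 RU), compound concentrations were injected low to high for 75 s each at 100 µL/min, then the chip was regenerated. Buffer: HBS pH 7.4, 10 mM MgCl2, 10 µM GDP, 1 mM DTT, 4% DMSO; 30°C. KD from a 1:1 binding model.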

[1] = system: human lung cancer strain NCI-H441; type: cell-based
Method in brief: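 Signal came from […] measured per well once the reagent was added. Beforehand, cells were cultured at 37°C and 5% carbon dioxide on a compound series serially diluted in dimethyl sulfoxide.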

[2] = target: GDP-bound NRAS wild-type protein (Homo sapiens, UniProt P01111); assay: Binding to NRAS by surface plasmon resonance (SPR), KD and KD ratio to KRAS; settings: ratio of KD for GDP-bound NRAS wild-type protein to KD for KRAS
Method in brief: as §1

GDP-bound NRAS wild-type protein, sequence (P01111 whole entry): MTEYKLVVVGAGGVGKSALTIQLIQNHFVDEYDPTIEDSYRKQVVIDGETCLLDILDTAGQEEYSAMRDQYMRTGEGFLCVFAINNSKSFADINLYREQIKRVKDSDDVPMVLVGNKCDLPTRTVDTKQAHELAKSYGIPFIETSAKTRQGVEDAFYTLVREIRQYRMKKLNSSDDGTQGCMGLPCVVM
HRAS wild-type protein, sequence (P01112 whole entry): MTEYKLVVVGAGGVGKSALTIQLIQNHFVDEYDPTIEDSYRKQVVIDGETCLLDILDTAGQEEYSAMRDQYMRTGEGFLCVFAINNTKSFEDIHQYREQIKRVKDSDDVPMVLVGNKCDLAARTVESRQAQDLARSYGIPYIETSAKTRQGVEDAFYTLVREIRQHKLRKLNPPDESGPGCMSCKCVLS

Compound | HRAS /KRAS (HRAS wild-type protein) | IC50 [1] [nM] | NRAS /KRAS [2]
CCO[C@@H]1C[C@H]2C(=O)NC3(CCC3)C(=O)N(C)[C@@H](CC(F)F)C(=O)N(C)[C@H](C(=O)N3CCOCC3)CC(=O)N(C)[C@@H](CC(C)C)C(=O)N[C@@H]([C@@H](C)CC)C(=O)N(C)CC(=O)N(C)[C@H]3CCCCCN(C3=O)[C@@H](Cc3ccc(C(F)(F)F)cc3)C(=O)N(C)CC(=O)N[C@@H](CCc3cc(F)c(C(F)(F)F)c(F)c3)C(=O)N2C1 [PP0822] | B (a compound having 3 or more and less than 10 is denoted as B) | 1990 | B (a compound having 3 or more and less than 10 is denoted as B)
CCO[C@@H]1C[C@H]2C(=O)NC3(CCC3)C(=O)N(C)[C@@H](C(C)(C)C)C(=O)N(C)[C@H](C(=O)N3CCOCC3)CC(=O)N(C)[C@@H](CC(C)C)C(=O)N[C@@H]([C@@H](C)CC)C(=O)N(C)CC(=O)N(C)[C@H]3CCCCCN(C3=O)[C@@H](Cc3ccc(C(F)(F)F)cc3)C(=O)N(C)CC(=O)N[C@@H](CCc3cc(F)c(C(F)(F)F)c(F)c3)C(=O)N2C1 [PP0823] | B (a compound having 3 or more and less than 10 is denoted as B) | 130 | A (a compound having 10 or more and less than 20 is denoted as A)
CCO[C@@H]1C[C@H]2C(=O)NC3(CCC3)C(=O)N(C)[C@@H](C3CCCC3)C(=O)N(C)[C@H](C(=O)N(C)C)CC(=O)N(C)[C@@H](CC)C(=O)N[C@@H]([C@@H](C)CC)C(=O)N(C)CC(=O)N(C)[C@H]3C/C=C\CCN(C3=O)[C@@H](Cc3ccc(C(F)(F)F)cc3)C(=O)N(C)CC(=O)N[C@@H](CCc3cc(F)c(C(F)(F)F)c(F)c3)C(=O)N2C1 [PP0824] | A (a compound having 10 or more and less than 20 is denoted as A) | 23.6 | A (a compound having 10 or more and less than 20 is denoted as A)
CCO[C@@H]1C[C@H]2C(=O)NC3(CCC3)C(=O)N(C)[C@@H](C3CCCC3)C(=O)N(C)[C@H](C(=O)N3CCOCC3)CC(=O)N(C)[C@@H](CC(C)C)C(=O)N[C@@H]([C@@H](C)CC)C(=O)N(C)CC(=O)N(C)[C@H]3C/C=C\CCN(C3=O)[C@@H](Cc3ccc(C(F)(F)F)cc3)C(=O)N(C)CC(=O)N[C@@H](CCc3ccc(C(F)(F)F)c(Cl)c3)C(=O)N2C1 [PP0825] | A (a compound having 10 or more and less than 20 is denoted as A) | 26.5 | A (a compound having 10 or more and less than 20 is denoted as A)
CCO[C@@H]1C[C@H]2C(=O)NC3(CCC3)C(=O)N(C)[C@@H](C3CCCC3)C(=O)N(C)[C@H](C(=O)N(C)C)CC(=O)N(C)[C@@H](CC)C(=O)N[C@@H]([C@@H](C)CC)C(=O)N(C)CC(=O)N(C)[C@H]3CC=C(C)CN(C3=O)[C@@H](Cc3ccc(C(F)(F)F)cc3)C(=O)N(C)CC(=O)N[C@@H](CCc3cc(F)c(C(F)(F)F)c(F)c3)C(=O)N2C1 [PP0827] | C (A compound having a KD ratio of 0.1 or more and less than 3 is denoted as C) | 15.7 | C (A compound having a KD ratio of 0.1 or more and less than 3 is denoted as C)
CCO[C@@H]1C[C@H]2C(=O)NC3(CC(F)(F)C3)C(=O)N(C)[C@@H](C3CCCC3)C(=O)N(C)[C@H](C(=O)N3CCOCC3)CC(=O)N(C)[C@@H](CC(C)C)C(=O)N[C@@H]([C@@H](C)CC)C(=O)N(C)CC(=O)N(C)[C@H]3CC=C(C)CN(C3=O)[C@@H](Cc3ccc(C(F)(F)F)cc3)C(=O)N(C)CC(=O)N[C@@H](CCc3cc(F)c(C(F)(F)F)c(F)c3)C(=O)N2C1 [PP0828] | C (A compound having a KD ratio of 0.1 or more and less than 3 is denoted as C) | 7.3 | C (A compound having a KD ratio of 0.1 or more and less than 3 is denoted as C)

Source: patent EP4603105A1, “PHARMACEUTICAL COMPOSITION CONTAINING CYCLIC COMPOUND HAVING SELECTIVE KRAS INHIBITORY EFFECT AGAINST HRAS AND NRAS” (CHUGAI SEIYAKU KABUSHIKI KAISHA, priority 2022, dated 2024)
